Source: patent US20210395306A1, “POLYPEPTIDES FOR THE TREATMENT OF STRESS, IMMUNOREACTION AND STROKE SYNDROMES” (Neopep Pharma GmbH & Co. KG, priority 2018, published 2021)

System: Pancreas carcinoma cells
Assay: Cancer cell invasion assay on humanized rats with implanted pancreas carcinoma cells
Type: in vivo
Details: pancreas carcinoma implant
Description: The cancer cell invasion assay was performed on humanized rats (Eyol, E. et al., Oncology Reports, 28: 2177-2187, 2012). Pancreas carcinoma cells were implanted. The successful implant was observed by luminescent imaging as well as by an increase in CXCR4 expression.
After a successful implant of carcinoma cells, the rats were treated with a peptide according to SEQ ID No. 1. The results after 1 week of therapy (1 w of therapy), after 2 weeks of therapy (2 w of therapy) and 2 weeks after end of therapy are depicted in the below table.

**Q.** How did the “Tumor growth / remission” value (10 mg peptide, 1 w of therapy) turn out when LVRYTQKAPQVS (human) [SEQ ID No. 1] was run?
**A.** The value was “No tumor growth”.

**Q.** And the “Tumor growth / remission” value (20 mg peptide, 1 w of therapy)?
**A.** The value was “No tumor growth”.

**Q.** What about the “Tumor growth / remission” value (20 mg peptide, 2 w after end of therapy) of the same sequence?
**A.** The value was “Complete”.

**Q.** And the “Tumor growth / remission” value (20 mg peptide, 2 w of therapy)?
**A.** Its value is “Complete”.

**Q.** What about the “Tumor growth / remission” value (70 mg peptide, 1 w of therapy) of the same sequence?
**A.** The value was “No tumor growth”.

**Q.** And the “Tumor growth / remission” value (70 mg peptide, 2 w after end of therapy)?
**A.** Its value is “Complete”.

**Q.** What about the “Tumor growth / remission” value (70 mg peptide, 2 w of therapy) of the same sequence?
**A.** Its value is “Remission”.
